How the values were obtained:
[1] = target: class C beta-lactamase P99 (AmpC) (Enterobacter cloacae, UniProt P05364); experiment: biochemical; type: biochemical
Method: (§1) The IC50 value represents the concentration of inhibitor required to effect a 50% loss of activity of free enzyme. A standard test for the production of beta-lactamase involves use of the chromogenic cephalosporin, nitrocefin.
(§2) Homogeneously purified class A beta-lactamases TEM-1 and SHV-1 from E. coli and class C enzyme P99 from Enterobacter cloaca were employed in the assay.
(§3) All the enzymes and compounds were dissolved in 50 mM phosphate buffer pH 7.0 and all further dilutions were done with the same buffer solution. Enzyme and compound dilutions were pre-incubated for 30 min at 37° C. and in a final volume of 500 μl. Than 10 μl of 5 mM nitrocefin (reporter substrate) was added to the solution and the absorbance at 482 nm was measured during 2 to 5 minutes. The initial rate was calculated for all the different solutions.

[2] = target: class A beta-lactamase SHV-1 (Escherichia coli, UniProt P0AD63); experiment: IC50 determination with nitrocefin, SHV-1; type: biochemical, E. coli
Sequence of class A beta-lactamase SHV-1 (P0AD63 22-286): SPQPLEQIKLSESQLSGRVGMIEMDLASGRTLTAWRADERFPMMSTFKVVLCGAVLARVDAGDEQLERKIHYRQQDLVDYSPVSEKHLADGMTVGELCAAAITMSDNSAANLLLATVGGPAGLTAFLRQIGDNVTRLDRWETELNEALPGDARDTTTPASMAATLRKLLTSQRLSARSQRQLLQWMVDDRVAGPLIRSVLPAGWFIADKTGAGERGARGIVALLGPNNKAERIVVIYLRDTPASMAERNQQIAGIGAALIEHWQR
Method: as §1, §2, §3

[3] = target: class A beta-lactamase TEM-1 (Escherichia coli, UniProt P62593); experiment: IC50 determination with nitrocefin, TEM-1; type: biochemical, E. coli; settings: pre-incubated 30 min at 37° C., phosphate buffer pH 7.0, nitrocefin
Sequence of class A beta-lactamase TEM-1 (P62593 24-286 limits assumed): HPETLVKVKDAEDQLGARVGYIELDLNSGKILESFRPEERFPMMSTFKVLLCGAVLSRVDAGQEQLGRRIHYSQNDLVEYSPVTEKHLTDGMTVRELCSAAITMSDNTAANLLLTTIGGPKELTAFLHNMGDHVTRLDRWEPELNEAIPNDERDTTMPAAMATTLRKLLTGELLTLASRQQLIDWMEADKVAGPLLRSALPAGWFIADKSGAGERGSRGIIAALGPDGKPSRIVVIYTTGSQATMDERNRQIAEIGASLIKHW
Method: as §1, §2, §3

[4] = system: E. cloacae Lek 24 (AmpC); experiment: Broth microdilution MIC, S1; type: cell-based; settings: CAMHB, 35° C., 24 h, duplicate
Method: (§4) Stock solutions of the test compounds and Tazocin® were prepared in distilled water according to the CLSI guidelines [Methods for dilution antimicrobial tests for bacteria that grow aerobically. NCCLS document M7-A5; 2000; vol. 19. Clinical and Laboratory Standards Institute, Villanova, Pa.].
(§5) All tested strains and clinical isolates were either purchased from the American Type Culture Collection (ATCC), or from the in-house company culture collection. The tested strains were purely used for the purposes of illustrative example, and are by no means essential for performing the invention.
(§6) The strains were processed according to procedures recommended by ATCC, or procedures that are routinely used. Frozen bacterial stocks were thawed to room temperature, and a few drops were placed on an appropriate blood agar plate. The cultures were subcultured on a fresh Mueller-Hinton agar plate (MHA) the following day, and the subcultures were again incubated overnight.
(§7) Bacterial suspensions with a turbidity equivalent to that of a 0.5 McFarland standard were prepared by suspending a tiny portion of one colony from blood agar plates in 2 mL of sterile saline. […]
(§8) The in vitro activities of the antibiotics were determined by the broth microdilution method as recommended by CLSI guidelines. […]

[5] = system: K. pneumoniae B401 (TEM-10, TEM-12); experiment: Broth microdilution MIC, S17; type: cell-based; settings: Klebsiella pneumoniae, CAMHB, 35° C., 24 h, duplicate
Method: as §4, §5, §6, §7, §8

[6] = system: K. pneumoniae DSA 1461; experiment: Broth microdilution MIC, S7; type: cell-based; settings: Klebsiella pneumoniae, DSA1461, CAMHB, 35° C., 24 h, duplicate
Method: as §4, §5, §6, §7, §8

[7] = system: C. freundii B318 (CTX-M); experiment: Broth microdilution MIC, S10; type: cell-based; settings: Citrobacter freundii, CAMHB, 35° C., 24 h, duplicate
Method: as §4, §5, §6, §7, §8

[8] = system: K. pneumoniae Lek 22; experiment: Broth microdilution MIC, S18; type: cell-based; settings: Klebsiella pneumoniae, LEK22, CAMHB, 35° C., 24 h, duplicate
Method: as §4, §5, §6, §7, §8

[9] = system: E. cloacae Lek 14, derepressed (AmpC); experiment: Broth microdilution MIC, S2; type: cell-based; settings: CAMHB, 35° C., 24 h, duplicate
Method: as §4, §5, §6, §7, §8

[10] = system: E. faecium Lek 116; experiment: Broth microdilution MIC, S15; type: cell-based; settings: Enterococcus faecium, LEK116, CAMHB, 35° C., 24 h, duplicate
Method: as §4, §5, §6, §7, §8

[11] = system: E. cloacae 4013; experiment: Broth microdilution MIC, S3; type: cell-based; settings: Enterobacter cloacae, CAMHB, 35° C., 24 h, duplicate
Method: as §4, §5, §6, §7, §8

[12] = system: E. faecalis ATCC 29212; experiment: Broth microdilution MIC, S5; type: cell-based; settings: Enterococcus faecalis, ATCC29212, CAMHB, 35° C., 24 h, duplicate
Method: as §4, §5, §6, §7, §8

[13] = system: E. caerogenes ATCC 29751 (class II); experiment: Broth microdilution MIC, S4; type: cell-based; settings: CAMHB, 35° C., 24 h, duplicate
Method: as §4, §5, §6, §7, §8

[14] = system: K. pneumoniae Lek 8; experiment: Broth microdilution MIC, S16; type: cell-based; settings: Klebsiella pneumoniae, LEK8, CAMHB, 35° C., 24 h, duplicate
Method: as §4, §5, §6, §7, §8

[15] = system: E. faecalis Lek 112; experiment: Broth microdilution MIC, S14; type: cell-based; settings: Enterococcus faecalis, LEK112, CAMHB, 35° C., 24 h, duplicate
Method: as §4, §5, §6, §7, §8

[16] = system: K. pneumoniae ATCC 700603 (SHV-18); experiment: Broth microdilution MIC, S8; type: cell-based; settings: Klebsiella pneumoniae, ATCC700603, CAMHB, 35° C., 24 h, duplicate
Method: as §4, §5, §6, §7, §8

[17] = system: K. pneumoniae B312 (SHV-18); experiment: Broth microdilution MIC, S6; type: cell-based; settings: Klebsiella pneumoniae, CAMHB, 35° C., 24 h, duplicate
Method: as §4, §5, §6, §7, §8

[18] = system: E. coli B308; experiment: Broth microdilution MIC, S12; type: cell-based; settings: Escherichia coli, CAMHB, 35° C., 24 h, duplicate
Method: as §4, §5, §6, §7, §8

[19] = system: C. freundii B271 (SHV-5); experiment: Broth microdilution MIC, S9; type: cell-based; settings: CAMHB, 35° C., 24 h, duplicate
Method: as §4, §5, §6, §7, §8

[20] = system: C. freundii Lek 17 (AmpC); experiment: Broth microdilution MIC, S19; type: cell-based; settings: Citrobacter freundii, CAMHB, 35° C., 24 h, duplicate
Method: as §4, §5, §6, §7, §8

[21] = system: ceftazidime-resistant strains; experiment: Broth microdilution susceptibility assay, overall comparison; type: cell-based; settings: in words, several ceftazidime-resistant strains tested
Method: as §4, §5, §6, §7, §8

[22] = system: E. coli B309; experiment: Broth microdilution MIC, S13; type: cell-based; settings: Escherichia coli, CAMHB, 35° C., 24 h, duplicate
Method: as §4, §5, §6, §7, §8

[23] = in words, compared to tazobactam

Sequence of class C beta-lactamase P99 (AmpC) (P05364 21-381): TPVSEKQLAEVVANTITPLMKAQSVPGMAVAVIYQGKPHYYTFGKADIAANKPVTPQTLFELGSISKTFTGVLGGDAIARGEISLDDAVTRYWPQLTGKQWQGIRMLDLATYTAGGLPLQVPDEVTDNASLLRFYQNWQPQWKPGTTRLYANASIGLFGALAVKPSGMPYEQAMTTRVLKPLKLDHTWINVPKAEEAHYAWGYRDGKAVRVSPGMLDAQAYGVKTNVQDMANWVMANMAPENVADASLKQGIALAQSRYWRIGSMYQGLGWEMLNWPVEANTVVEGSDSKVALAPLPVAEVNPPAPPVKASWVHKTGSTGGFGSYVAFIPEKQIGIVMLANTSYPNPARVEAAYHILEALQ

`CO[C@H]1CCC[C@H]2C1=C(C(=O)O)N1C(=O)[C@H]([C@H](O)C(F)(F)F)[C@@H]21` [LK-178, Sodium (4S,8S,9R,10S)-4-methoxy-10-[1-(S)-hydroxy-2,2,2-trifluoroethyl]-11-oxo-azatricyclo[7.2.0.0^3,8]undec-2-ene-2-carboxylate] gave an IC50 [1] of 419 nM, an IC50 [2] of 1100 nM and an IC50 [3] of 8400 nM.
For `CO[C@H]1CCC[C@H]2C1=C(C(=O)[O-])N1C(=O)[C@H]([C@H](O)CF)[C@@H]21.[Na+]` [LK-180, Sodium salt of (4S,8S,9R)-4-methoxy-10-(1-(S)-hydroxy-fluoroethyl)-11-oxo-1-azatricyclo-[7.2.0.0 (3,8)]undec-2-ene-2-carboxylic acid], the “MIC S1” value [4] was 4 µg/mL, the MIC ([4]; Enterobacter cloacae) was 8 µg/mL and the MIC [5] was 8 µg/mL. The MIC [6] was 4 µg/mL, the IC50 [1] was 0.5 nM and the “activity against AmpC enzyme as compared to tazobactam” value [1, 23] was “highly potentiated activity”. The MIC [7] was 128 µg/mL, the MIC [8] was 32 µg/mL and the “MIC S2” value [9] was 4 µg/mL. The MIC [10] was 32 µg/mL, the MIC [11] was 64 µg/mL and the MIC [12] was 4 µg/mL. It also gave an MIC [13] of 16 µg/mL, an MIC [14] of 16 µg/mL and an MIC [15] of 4 µg/mL. For the same compound, the MIC [16] was 2 µg/mL, the MIC [17] was 8 µg/mL and the MIC [18] was 4 µg/mL. For the same compound, the “MIC S9” value [19] was 16 µg/mL, the IC50 [2] was 12 nM and the “activity against SHV-1 enzyme as compared to tazobactam” value [2, 23] was “highly potentiated activity”. The IC50 [3] was 500 nM, the MIC [20] was 8 µg/mL and the “antibiotic activity compared to Tazocin®” value [21] was “superior to Tazocin®”. The MIC [22] was 4 µg/mL.
